From publication PMC3397464, “Woodylides A–C, New Cytotoxic Linear Polyketides from the South China Sea Sponge Plakortis simplex” (Marine Drugs, 2012)
In brackets after ≈: the same amount, converted by molar mass.

How the values were obtained:
[1] = system: Cryptococcus neoformans (ATCC 90113); assay: Antifungal evaluation, IC50 against C. neoformans; type: cell-based; details: RPMI 1640; for IC50: Cryptococcus neoformans, ATCC90113, incubated 70–74 h at 35 °C
Procedure: (§1) The three new polyketides 1–3 were evaluated for antifungal activity against Cryptococcus neoformans (ATCC 90113), Candida albicans (Y0109), Trichophyton rubrum (Cmccftla) and Microsporum gypseum (Cmccfmza) (Table 2), for in vitro cytotoxic activity against human cancer cell lines, HCT-116 (colon cancer), A549 (lung carcinoma), HeLa (cervical cancer), QGY-7703 (hepatocarcinoma), and MDA231 (breast adenocarcinoma) (Table 3), and protein tyrosine phosphatase 1B (PTP1B) inhibitory activity (Table 3). […] Cytotoxicity of compound 3 against A549, HeLa, QGY-7703, and MDA231 cell lines was weaker when compared to that of 1. […] The PTP1B inhibitors are recognized as potential therapeutic agents for the treatment of type II diabetes and obesity.
Optical rotations were determined with a Perkin-Elmer 341 polarimeter with 1 mm cell. IR spectra were recorded on a Bruker vector 22 spectrometer with KBr pellets. The NMR experiments were conducted on Bruker AVANCE-600 and Bruker AMX-500 instruments. HRESIMS and ESIMS were obtained on a Q-Tof micro YA019 mass spectrometer. In antifungal evaluation, IC50 values were calculated on XLfit 4.2 software (IDBS: Alameda, CA, USA, 2005). Reversed-phase HPLC was performed on YMC-Pack Pro C18 RS (5 μm) columns with a Waters 1525/2998 liquid chromatograph. Column chromatographies were carried out on silica gel 60 (200–300 mesh; Yantai, China), Sephadex LH-20 (Amersham Biosciences). TLC was carried out using HSGF 254 plates and visualized by spraying with anisaldehyde-H2SO4 reagent.
(§2) Antifungal IC50 values of woodylides A–C against C. neoformans were calculated as described by Ikhlas A. Khan et al.. Amphotericin B was used as the positive control. Minimal Inhibition Concentration (MIC) values of woodylides A–C were determined against three indicators (C. albicans, T. rubrum, and M. gypseum), following the […] (NCCLS) methods. Fluconazole was used as the positive control. Briefly, samples (dissolved in DMSO) were serially diluted in 20% DMSO/saline and transferred (10 µL) in duplicate to 96 well flat bottom microplates. Bacterial strains were grown aerobically at 30 °C in SDA for 16–20 h. A set of different concentrations of compounds 1–3 prepared in RPMI 1640 were next inoculated with the microorganisms and incubated 70–74 h for C. neoformans at 35 °C, 46 h for C. albicans at 35 °C, and 4–7 days for T. rubrum and M. gypseum at 30 °C. The IC50 values were calculated by using the fit model 201 of XLfit 4.2 software.

[2] = system: Trichophyton rubrum (Cmccftla); assay: Antifungal evaluation, MIC (NCCLS broth dilution); type: cell-based; details: 4–7 days at 30 °C, range 1.25–640 μg/mL, read-out: Antifungal Activity T. rubrum, MIC
Procedure: as §1, §2

[3] = system: Microsporum gypseum (Cmccfmza); assay: Antifungal evaluation, MIC (NCCLS broth dilution); type: cell-based; details: Nannizzia gypsea, 4–7 days at 30 °C, range 1.25–640 μg/mL
Procedure: as §1, §2

Cytotoxicity MTT assay [4] = type: cell-based; details: human, 48 h treatment, 1 to 100 μg/mL
Procedure: (§3) Cytotoxicity of compound 3 against A549, HeLa, QGY-7703, and MDA231 cell lines was weaker when compared to that of 1. […] The PTP1B inhibitors are recognized as potential therapeutic agents for the treatment of type II diabetes and obesity. The cytotoxicity of compounds 1-3 against HCT-116, A549, HeLa, QGY-7703, and MDA231 cell lines was evaluated by the MTT assay as described in a previous report. Briefly, compounds were solubilized in DMSO with the working concentration of test substances ranging from 1 to 100 μg/mL. Cells at the exponential growth phase were harvested and seeded into 96-well plates. After incubation for 24 h, the cells were treated with various concentrations of test substances for 48 h and then incubated with 1 mg/mL MTT at 37 °C for 4 h, followed by dissolving in DMSO. The produced formazan was measured by the absorbance at 570 nm on a microplate reader. The IC50 values were calculated on the basis of percentage inhibition using the linear regression method.

[5] = target: T1, protein tyrosine phosphatase 1B (PTP1B) (Homo sapiens, UniProt P18031); assay: PTP1B inhibitory assay (pNPP hydrolysis); type: biochemical; details: recombinant PTP1B catalytic domain, 30 °C, pH 6.5
T1 construct: The enzymatic activities of the PTP1B catalytic domain were determined at 30 °C by monitoring the hydrolysis of pNPP
T1 sequence (P18031 3-277 limits assumed): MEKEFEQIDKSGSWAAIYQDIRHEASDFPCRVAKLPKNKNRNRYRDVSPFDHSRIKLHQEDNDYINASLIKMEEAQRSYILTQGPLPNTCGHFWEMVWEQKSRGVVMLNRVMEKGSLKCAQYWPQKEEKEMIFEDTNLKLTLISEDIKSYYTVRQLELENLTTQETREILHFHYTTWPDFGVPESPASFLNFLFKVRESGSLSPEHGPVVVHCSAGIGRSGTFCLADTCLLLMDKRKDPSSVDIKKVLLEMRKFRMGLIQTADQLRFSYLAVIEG
Procedure: The enzymatic activities of the PTP1B catalytic domain were determined at 30 °C by monitoring the hydrolysis of pNPP.

Candida albicans (Y0109) = assay: Antifungal evaluation, MIC (NCCLS broth dilution); type: cell-based; details: 46 h at 35 °C, range 1.25–640 μg/mL
Procedure: as §1, §2

HeLa (cervical cancer) = assay: Cytotoxicity MTT assay; type: cell-based, human; details: 48 h treatment, 1 to 100 μg/mL
Procedure: as §3

Cytotoxicity MTT assay [6] = type: cell-based, human; details: human, HeLa cells (cervical cancer), 48 h treatment, 1 to 100 μg/mL
Procedure: as §3

Compound | IC50 [1] | MIC [2] | MIC [3] | further results
CCCCC(C)CC(O)(C=C(CC)C(O)CC(=O)O)CC (centres unmarked) [Compound 3, Woodylide C] | 10.8 µg/mL (≈ 36.1 µM) | 32 µg/mL (≈ 107 µM) | 32 µg/mL (≈ 107 µM) | IC50 at 48 h (Cytotoxicity MTT assay [4]; HCT-116 cells (colon cancer)): 9.4 µg/mL (≈ 31.3 µM); IC50 [5]: 15.6 µM
CCCCC(CC)CC(O)(/C=C(/CC)[C@@H](O)CC(=O)OC)CC (some centres unmarked) [Compound 2, Woodylide B] | – | – | – | Antifungal Activity C. neoformans, IC50 ([1]; incubated 70–74 h at 35 °C): inactive
OC(Cn1cncn1)(Cn1cncn1)c1ccc(F)cc1F [Fluconazole, reference compound] | – | 2 µg/mL (≈ 6.53 µM) | 8 µg/mL (≈ 26.1 µM) | –
CCCCC(C)CC(O)(/C=C(/CC)[C@@H](O)CC(=O)OC)CC (some centres unmarked) [Compound 1, Woodylide A] | 3.67 µg/mL (≈ 11.7 µM) | 32 µg/mL (≈ 102 µM) | 32 µg/mL (≈ 102 µM) | MIC (Candida albicans (Y0109)): 32 µg/mL (≈ 102 µM); IC50 at 48 h (Cytotoxicity MTT assay [4]; A549 cells (lung carcinoma)): 37.8 µg/mL (≈ 120 µM); IC50 at 48 h (Cytotoxicity MTT assay [4]; QGY-7703 cells (hepatocarcinoma)): 25.8 µg/mL (≈ 82 µM); Cytotoxicity IC50 HeLa (HeLa (cervical cancer)): 11.22 µg/mL; IC50 at 48 h (Cytotoxicity MTT assay [6]): 11.2 µg/mL (≈ 35.6 µM)
C[C@@H]1[C@H](O)[C@@H](C)/C=C/C=C/C=C/C=C/C=C/C=C/C=C/[C@H](O[C@@H]2O[C@H](C)[C@@H](O)[C@H](N)[C@@H]2O)C[C@@H]2O[C@](O)(C[C@@H](O)C[C@@H](O)[C@H](O)CC[C@@H](O)C[C@@H](O)CC(=O)O[C@H]1C)C[C@H](O)[C@H]2C(=O)O [Amphotericin B, reference compound] | 0.35 µg/mL (≈ 0.379 µM) | – | – | –
